Among the data in PubChem BioAssay AID344 (DTP/NCI, 2004) are T/C values, retold here.

The test relates to mice, LPC-1 plasma cell tumor ip, median survival T/C. Kind of test: NCI In Vivo Anticancer Drug Screen. Data for tumor model Lieberman Plasma Cell No. 1 (LPC-1) (intraperitoneal) in unknown mice. Particulars: endpoint: median survival time, higher = longer survival. Here is the method:
The antitumor activity of compounds was measured in mice bearing transplantable tumors. Survival or tumor size were measured and the results are expressed as the measurement made in the treated group (T) divided by the measurement made in the vehicle treated control group (C). The tumor model used in this assay is Lieberman Plasma Cell No. 1 (LPC-1) (intraperitoneal) in unknown mice

Where [1] appears, read: dose: 2.0 mg/kg/injection, schedule: Q01DX028 (sc), vehicle: saline.
[2] abbreviates: dose: 4.0 mg/kg/injection, schedule: Q01DX028 (sc), vehicle: saline.
Where [3] appears, read: dose: 6.0 mg/kg/injection, schedule: Q01DX028 (sc), vehicle: saline.
The mark [4] stands for this setting: dose: 48.0 mg/kg/injection, schedule: Q01DX028 (sc), vehicle: saline.
Setting [5] is: dose: 5.0 mg/kg/injection, schedule: Q01DX028 (sc), vehicle: carboxymethylcellulose (CMC).
The mark [6] stands for this setting: dose: 500.0 mg/kg/injection, schedule: Q01DX028 (sc), vehicle: carboxymethylcellulose (CMC).

Values joined by “and” are separate entries in the source; they are usually repeats but may differ in a detail not shown here. Identical values can stand only once. Inconclusive results and toxic doses are left out.

In the case of `O=P1(N(CCCl)CCCl)NCCCO1` (configuration not stated), the T/C is, setting by setting: under setting [1], 86 % of control; (dose: 3.12 mg/kg/injection, schedule: Q01DX028 (sc), vehicle: saline) 109 % of control; under setting [2], 100 % of control; under setting [3], 114 % of control; (dose: 8.0 mg/kg/injection, schedule: Q01DX028 (sc), vehicle: saline) 161 % of control; (dose: 8.4 mg/kg/injection, schedule: Q01DX028 (sc), vehicle: saline) 182 % of control and 184 % of control and 213 % of control. In addition, the T/C (dose: 10.0 mg/kg/injection, schedule: Q01DX Z (sc), vehicle: saline) was 194 % of control; the T/C (dose: 12.0 mg/kg/injection, schedule: Q01DX028 (sc), vehicle: saline) was 243 % of control; the T/C (dose: 12.5 mg/kg/injection, schedule: Q01DX011 (sc), vehicle: saline) was 190 % of control; the T/C (dose: 12.5 mg/kg/injection, schedule: Q01DX024 (sc), vehicle: saline) is 229 % of control; the T/C (dose: 14.0 mg/kg/injection, schedule: Q01DX Z (sc), vehicle: saline) was 190 % of control; the T/C (dose: 15.62 mg/kg/injection, schedule: Q01DX010 (sc), vehicle: saline) is 150 % of control. Moreover, the T/C is, setting by setting: (dose: 16.0 mg/kg/injection, schedule: Q01DX028 (sc), vehicle: saline) 167 % of control and 212 % of control; (dose: 20.0 mg/kg/injection, schedule: Q01DX Z (sc), vehicle: saline) 155 % of control; (dose: 23.0 mg/kg/injection, schedule: Q01DX Z (sc), vehicle: saline) 166 % of control; (dose: 24.0 mg/kg/injection, schedule: Q01DX028 (sc), vehicle: saline) 114 % of control; (dose: 25.0 mg/kg/injection, schedule: Q01DX011 (sc), vehicle: saline) 190 % of control; (dose: 25.0 mg/kg/injection, schedule: Q01DX015 (sc), vehicle: saline) 91 % of control. The T/C runs as follows: (dose: 25.0 mg/kg/injection, schedule: Q01DX024 (sc), vehicle: saline) 244 % of control; (dose: 31.25 mg/kg/injection, schedule: Q01DX010 (sc), vehicle: saline) 186 % of control; (dose: 32.0 mg/kg/injection, schedule: Q01DX028 (sc), vehicle: saline) 200 % of control and 208 % of control; (dose: 39.0 mg/kg/injection, schedule: Q01DX009 (sc), vehicle: saline) 154 % of control; (dose: 39.0 mg/kg/injection, schedule: Q01DX Z (sc), vehicle: saline) 150 % of control; under setting [4], 100 % of control. Besides, the T/C by setting is: (dose: 50.0 mg/kg/injection, schedule: Q01DX009 (ip), vehicle: saline) 259 % of control and 88 % of control; (dose: 50.0 mg/kg/injection, schedule: Q01DX011 (sc), vehicle: saline) 190 % of control; (dose: 50.0 mg/kg/injection, schedule: Q01DX015 (sc), vehicle: saline) 211 % of control; (dose: 50.0 mg/kg/injection, schedule: Q01DX024 (sc), vehicle: saline) 223 % of control; (dose: 64.0 mg/kg/injection, schedule: Q01DX028 (sc), vehicle: saline) 168 % of control; (dose: 65.0 mg/kg/injection, schedule: Q07DX004 (sc), vehicle: saline) 197 % of control. Moreover, the T/C is 100 % of control (dose: 125.0 mg/kg/injection, schedule: Q01DX010 (sc), vehicle: saline); 97 % of control (dose: 128.0 mg/kg/injection, schedule: Q01DX028 (sc), vehicle: saline); 97 % of control (dose: 180.0 mg/kg/injection, schedule: Q01DX028 (sc), vehicle: saline).

Take `CS(=O)(=O)OCCN(CCOS(C)(=O)=O)c1ccc(N=O)cc1`: the T/C reads like this: (dose: 0.25 mg/kg/injection, schedule: Q01DX028 (sc), vehicle: saline) 105 % of control; (dose: 0.5 mg/kg/injection, schedule: Q01DX028 (sc), vehicle: saline) 107 % of control; (dose: 1.0 mg/kg/injection, schedule: Q01DX028 (sc), vehicle: saline) 120 % of control; (dose: 1.8 mg/kg/injection, schedule: Q01DX028 (sc), vehicle: saline) 157 % of control; under setting [1], 102 % of control and 115 % of control; (dose: 2.7 mg/kg/injection, schedule: Q01DX028 (sc), vehicle: saline) 121 % of control. Besides, the T/C is 94 % of control and 100 % of control under setting [2]; 94 % of control under setting [3].

In the case of `O=C(O)CCc1c[nH]c2ccc(N(CCCl)CCCl)cc12`, the T/C runs as follows: (dose: 1.8 mg/kg/injection, schedule: Q01DX028 (sc), vehicle: carboxymethylcellulose (CMC)) 182 % of control; (dose: 2.7 mg/kg/injection, schedule: Q01DX028 (sc), vehicle: carboxymethylcellulose (CMC)) 113 % of control; (dose: 3.0 mg/kg/injection, schedule: Q01DX028 (sc), vehicle: carboxymethylcellulose (CMC)) 164 % of control; under setting [5], 151 % of control; (dose: 6.0 mg/kg/injection, schedule: Q01DX028 (sc), vehicle: carboxymethylcellulose (CMC)) 163 % of control; (dose: 9.0 mg/kg/injection, schedule: Q01DX028 (sc), vehicle: carboxymethylcellulose (CMC)) 86 % of control.

Turning to `O=c1ccc2cc(O)c(O)cc2o1`, the T/C by setting is: (dose: 31.0 mg/kg/injection, schedule: Q01DX028 (sc), vehicle: steriod suspending solution) 119 % of control; (dose: 62.0 mg/kg/injection, schedule: Q01DX028 (sc), vehicle: steriod suspending solution) 115 % of control.

In the case of `CC(=O)[C@H]1CC[C@H]2[C@@H]3C[C@H](C)C4=CC(=O)CC[C@]4(C)[C@H]3C(=O)C[C@]12C`, the T/C runs as follows: (dose: 108.0 mg/kg/injection, schedule: Q01DX028 (sc), vehicle: carboxymethylcellulose (CMC)) 102 % of control; (dose: 180.0 mg/kg/injection, schedule: Q01DX028 (sc), vehicle: carboxymethylcellulose (CMC)) 100 % of control; (dose: 300.0 mg/kg/injection, schedule: Q01DX028 (sc), vehicle: carboxymethylcellulose (CMC)) 97 % of control; under setting [6], 97 % of control.

As for `CS(=O)(=O)OCCCCOS(C)(=O)=O`, the T/C runs as follows: (dose: 1.25 mg/kg/injection, schedule: Q01DX028 (sc), vehicle: carboxymethylcellulose (CMC)) 92 % of control; (dose: 2.5 mg/kg/injection, schedule: Q01DX028 (sc), vehicle: carboxymethylcellulose (CMC)) 102 % of control; under setting [5], 102 % of control; (dose: 10.0 mg/kg/injection, schedule: Q01DX028 (sc), vehicle: carboxymethylcellulose (CMC)) 123 % of control.

Turning to `OC(CBr)C(O)C(O)C(O)CBr` (configuration not stated), the T/C by setting is: (dose: 125.0 mg/kg/injection, schedule: Q01DX028 (sc), vehicle: carboxymethylcellulose (CMC)) 94 % of control and 102 % of control and 100 % of control; under setting [6], 89 % of control and 115 % of control.

`CC1(C)CC(C)(c2ccc(O)cc2)c2ccccc2O1` (configuration not stated): the T/C (dose: 200.0 mg/kg/injection, schedule: Q01DX028 (sc), vehicle: steriod suspending solution) is 114 % of control and the T/C (dose: 400.0 mg/kg/injection, schedule: Q01DX028 (sc), vehicle: steriod suspending solution) is 114 % of control.

Regarding `CCN(CC)CCNc1ccc(C)c2sc3ccccc3c(=O)c12` (tested in a mixture with another compound), the T/C under setting [4] is 221 % of control; the T/C (dose: 69.0 mg/kg/injection, schedule: Q01DX028 (sc), vehicle: saline) is 231 % of control; the T/C (dose: 98.0 mg/kg/injection, schedule: Q01DX028 (sc), vehicle: saline) was 165 % of control; the T/C (dose: 140.0 mg/kg/injection, schedule: Q01DX028 (sc), vehicle: saline) was 173 % of control.

Consider `CS(=O)(=O)OCCN(CCOS(C)(=O)=O)c1ccc(C=O)cc1`, for which the T/C was 160 % of control (dose: 3.0 mg/kg/injection, schedule: Q01DX028 (sc), vehicle: saline); 166 % of control and 192 % of control (dose: 5.0 mg/kg/injection, schedule: Q01DX028 (sc), vehicle: saline); 226 % of control (dose: 8.3 mg/kg/injection, schedule: Q01DX028 (sc), vehicle: saline); 202 % of control (dose: 10.0 mg/kg/injection, schedule: Q01DX028 (sc), vehicle: saline); 250 % of control (dose: 14.0 mg/kg/injection, schedule: Q01DX028 (sc), vehicle: saline); 261 % of control (dose: 20.0 mg/kg/injection, schedule: Q01DX028 (sc), vehicle: saline). Besides, the T/C (dose: 40.0 mg/kg/injection, schedule: Q01DX028 (sc), vehicle: saline) was 122 % of control.
